Laboratory results published in patent US7368565B2, “Methods for preparation of cytotoxic conjugates of maytansinoids and cell binding agents” (Immunogen Inc., priority 2001, dated 2008).

How the values were obtained:
[1] = more cytotoxic; cited from earlier work
[2] = system: human acute lymphoblastic leukemia line CEM; details: in vitro; cited from earlier work
[3] = system: P388, L1210, and LY5178 murine leukemic cell suspensions; details: in vitro; P388 line the most sensitive; cited from earlier work
[4] = system: P388 lymphocytic leukemia system; details: in vivo; suggested a high therapeutic index; cited from earlier work
L1210 cells = L1210 cells treated in vivo; untreated control mitotic index 3.2 to 5.8%; cited from earlier work
[5] = system: Lewis lung carcinoma system; details: in vivo; cited from earlier work
[6] = system: human nasopharyngeal carcinoma cells; details: cited from earlier work
[7] = system: B-16 melanocarcinoma system; details: in vivo; cited from earlier work
[8] = system: L1210 mouse leukemia system; details: in vivo; cited from earlier work
[9] = system: A431 cells constitutively expressing the antigen for huN901 (NCAM/CD56); assay: in vitro cytotoxicity (colony formation) towards antigen-expressing cells; assay type: cell-based, human; details: 5 to 7 days incubation; for IC50: surviving fraction, FIG. 1, read-out: IC50 in killing antigen positive cells
Procedure: The huN901-DM1 conjugates prepared by this new, one step method were evaluated for in vitro cytotoxicity towards antigen-expressing cells as follows. A clone of A431 cells constitutively expressing the antigen for huN901 (NCAM/CD56) were used in this assay. Cells were plated into 6-well tissue-culture treated plates at a density of 2×10^3 cells/well in 2 ml of DMEM medium supplemented with 10% fetal calf serum and penicillin+streptomycin. A huN901-DM1 conjugate or the control huN901 antibody was added to the wells at the time of plating, and the cultures were incubated in a tissue culture incubator at 37° C., 6% CO2, for 5 to 7 days to form colonies not smaller than 25 cells/colony. The plates were then washed with PBS, and then fixed/stained for 30 min at room temperature with 10% formaldehyde/0.2% (w/v) Crystal Violet in PBS. The wells were rinsed 3 times with water, dried by air, and the colonies were counted under a dissection low magnification microscope. The surviving fractions were calculated as the number of colonies in drug-treated well/number of colonies in non-treated well.

Molecule: COc1cc2cc(c1Cl)N(C)C(=O)C[C@H](OC(=O)[C@H](C)N(C)C(C)=O)[C@]1(C)O[C@H]1[C@H](C)[C@@H]1C[C@@](O)(NC(=O)O1)[C@H](OC)/C=C/C=C(\C)C2 [maytansine]
- cytotoxicity relative to conventional cancer chemotherapeutic agents like methotrexate, daunorubicin, and vincristine [1]: 100 to 1000 fold
- concentrations at which the line was inhibited [2]: ≥ 10^−7 mg/ml
- doses at which cell suspensions were inhibited [3]: 10^−3 to 10^−1 μg/μl
- dosage range over which tumor growth was inhibited [4]: 50- to 100 fold
- cells accumulating in mitosis (L1210 cells): 67%
- inhibitory activity [5]: significant inhibitory activity
- inhibition of in vitro growth [6]: active inhibitor
- inhibitory activity [7]: significant inhibitory activity
- inhibitory activity [8]: significant inhibitory activity

B1: huN901-DM1 conjugate (Sephadex G25): huN901 antibody conjugated in one step with maytansinoid 2, Sephadex G25 purified, average 2.08 DM1 per antibody (conjugate, chains of the INN, looked up)
VH: QVQLVESGGGVVQPGRSLRLSCAASGFTFSSFGMHWVRQAPGKGLEWVAYISSGSFTIYYADSVKGRFTISRDNSKNTLYLQMNSLRAEDTAVYYCARMRKGYAMDYWGQGTLVTVSS
VL: DVVMTQSPLSLPVTLGQPASISCRSSQIIIHSDGNTYLEWFQQRPGQSPRRLIYKVSNRFSGVPDRFSGSGSGTDFTLKISRVEAEDVGVYYCFQGSHVPHTFGQGTKVEIK
modifications: DM1 maytansinoid conjugate
notes: huN901 antibody conjugated in one step with maytansinoid 2, Sephadex G25 purified, average 2.08 DM1 per antibody
- IC50 [9]: 0.1 nM

B2: huN901-DM1 conjugate (Sephacryl S300): huN901 antibody conjugated in one step with maytansinoid 2, Sephacryl S300 purified, average 1.61 DM1 per antibody (conjugate, chains of the INN, looked up)
VH: B1 VH
VL: B1 VL
modifications: DM1 maytansinoid conjugate
notes: huN901 antibody conjugated in one step with maytansinoid 2, Sephacryl S300 purified, average 1.61 DM1 per antibody
- IC50 [9]: 0.1 nM

B3: huN901: control unconjugated antibody whose antigen is NCAM/CD56 (antibody, chains of the INN, looked up, V domains shown)
VH: B1 VH
VL: B1 VL
- toxicity to antigen positive cells ([9]; FIG. 1): non-toxic
